Test results reported in patent publication US11352400B2, “PI3K gamma inhibitor peptide for treatment of respiratory system diseases” (Kither Biotech S.r.I., priority 2014, dated 2022).

Test system: ovalbumin (OVA)-induced asthma mice
Test: Airway hyperresponsiveness (tidal volume) in ovalbumin-induced asthma model
Type: in vivo, BALB/C mice
Conditions: OVA-sensitized mice; 150 μg intra-tracheal, 30 minutes before methacholine; vs PBS or P1
Experimental: Ovalbumin (100 μg) (OVA, Sigma-Aldrich, St. Louis, Mo.), complexed with aluminum potassium sulfate (1 mg, alum) was administered intraperitoneally (i.p.) on days 1 and 14, and intra-nasally (i.n.) (50 μg OVA in 50 μl PBS) on days 14, 25, 26, and 27. Control mice received i.p. injections of alum and i.n. injections of PBS only. Airway hyperreactivity induced by inhaled methacholine was measured at 24 hours after the final dose of OVA (Day 28).
Method 2: Mice sensitized to ovalbumin were treated, by intra-tracheal instillation, with 70 μL of phosphate-buffered saline solution (PBS) containing vehicle or 150 μg of the Trojan peptide derived from PI3Kγ or equimolar amounts of P1 control peptide. Airway hyperresponsiveness was assessed at 30 minutes after the treatment according to a previously published protocol (6). […] The airway opening pressure (Pao), proximal to the endotracheal tube, and the pressure inside the chamber were measured with pressure transducers (Special Instruments, Digima Clic; Nordlingen, Germany). Gas flow was measured with a pneumotachograph (Special Instruments, Digima Clic; Nordlingen, Germany). Tidal volume was calculated as the integral of the flow signal. Variables of mechanical ventilation were recorded using the ICU-Lab software (KleisTEK Advanced Electronic Systems, Bari, Italy). […]

Sequence: RQIKIWFQNRRMKWKKGKATHRSPGQIHLVQRHPPSEESQAF (fusion peptide comprising SEQ ID No.1 and SEQ ID No.3) [Trojan peptide derived from PI3Kγ]
- reduction of the tidal volume induced by methacholine: significantly attenuated
